According to patent publication US20210024498A1, “TETRAHYDROPYRROLE COMPOUND, PREPARATION METHOD THEREFOR, PHARMACEUTICAL COMPOSITION CONTAINING SAME, AND USE THEREOF” (MEDICONNS (SHANGHAI) BIOPHARMACEUTICAL CO., LTD, priority 2017, published 2021):
“Also recorded” adds a separate entry of the source.

Tests used:
[1] = test system: PCP-induced high locomotor activity in mice; experiment: Phencyclidine (PCP) induced high locomotor activity (LMA) in mice; assay type: in vivo; parameters: Distance resulting from the activity, First 30 min / Distance resulting from the activity, Last 30 min: unit not given here; settings: for Effect on PCP-induced high locomotor activity compared with olanzapine (in words) / Inhibition of PCP-induced high locomotor activity (in words): 5, 10, 20 mg/kg; for Effect on PCP-induced high locomotor activity compared with olanzapine (in words): p.o. vs olanzapine 5 mg/kg p.o.; for Inhibition of PCP-induced high locomotor activity (in words): p.o., P<0.05-0.01; for Distance resulting from the activity, First 30 min / Distance resulting from the activity, Last 30 min: PCP 5.0 mg/kg s.c., male ICR mice
From the text: • 1. The effect of the compound on phencyclidine (PCP) induced high locomotor activity (LMA) in mice was detected.
The test compound MDC was milky white powder and stored in a shade and cool place (freshly formulated with 1% DMSO before use). […] Phencyclidine (PCP), purchased from Sigma Aldrich, was a grayish white powder (freshly formulated with normal saline before use). 1% DMSO was formulated by diluting pure DMSO (purity>99.5, purchased from Sigma-Aldrich) with normal saline.
(§1) Male ICR mice having weight 22±2 g were kept at 8 mice/cage with 12/12 hours light/dark cycle, temperature 23° C.±1° C., humidity 50% to 60%, free to eat and drink water.
The administration volume was 0.1 ml/10 g body weight; PCP was formulated with normal saline at a dose of 5 mg/kg.
The test compound MDC and olanzapine were administered by gavage and PCP was administered by subcutaneous injection.
(§2) After one week of acclimation, mice were randomly divided into 6 groups according to their body weight: negative control group, model group, positive control group, and low dose group, medium dose group and high dose group for the test compound. 8-10 animals/group.
(§3) Group 1: Negative control group: Normal saline (s.c.)+1% DMSO (10.0 ml/kg, p.o.);
Group 2: Model group: PCP (5.0 mg/kg, s.c.)+1% DMSO (10.0 ml/kg, p.o.);
Group 4: MDC low dose group: PCP (5.0 mg/kg, s.c.)+MDC (5 mg/kg, p.o.);
Group 5: MDC medium dose group: PCP (5.0 mg/kg, s.c.)+MDC (10 mg/kg, p.o.);
Group 6: MDC high dose group: PCP (5.0 mg/kg, s.c.)+MDC (20 mg/kg, p.o.).
After oral administration, the animals were immediately placed in a locomotor activity box and recorded by Shanghai Jiliang ( ? ) animal video analysis system for 1 hour.
(§4) After the experiment, the activity of the animals within 1 hour was analyzed using the trajectory analysis software of Shanghai Jiliang animal video analysis system to obtain the total distance resulting from the activity.

[2] = test system: Amphetamine-induced high locomotor activity in mice; experiment: Amphetamine-induced high locomotor activity (LMA) in mice; assay type: in vivo; parameters: Distance resulting from the activity, First 30 min / Distance resulting from the activity, Last 30 min: unit not given here; settings: for Effect on Amphetamine-induced high locomotor activity compared with olanzapine (in words) / Inhibition of Amphetamine-induced high locomotor activity (in words): 5, 10, 20 mg/kg; for Effect on Amphetamine-induced high locomotor activity compared with olanzapine (in words): p.o. vs olanzapine 5.0 mg/kg p.o.; for Inhibition of Amphetamine-induced high locomotor activity (in words): p.o., P<0.05-0.01; for Distance resulting from the activity, First 30 min / Distance resulting from the activity, Last 30 min: Amphetamine 1.0 mg/kg s.c., male ICR mice
Protocol: The test compound MDC was a milky white powder and stored in a shade and cool place (formulated with 1% DMSO before use). […] Amphetamine, purchased from Sigma-Aldrich, was a white powder (formulated with normal saline before use). 1% DMSO was formulated by diluting pure DMSO (purity>99.5, purchased from Sigma) with normal saline.
as §1
The administration volume was 0.1 ml/10 g body weight; Amphetamine was freshly formulated with normal saline at a dose of 1.0 mg/kg and administered subcutaneously.
as §2, §3
Group 2: Model group: Amphetamine (1.0 mg/kg, s.c.)+1% DMSO (10.0 ml/kg, p.o.);
Group 4: MDC low dose group: Amphetamine (1.0 mg/kg, s.c.)+MDC (5 mg/kg, p.o.);
Group 5: MDC medium dose group: Amphetamine (1.0 mg/kg, s.c.)+MDC (10 mg/kg, p.o.);
Group 6: MDC high dose group: Amphetamine (1.0 mg/kg, s.c.)+MDC (20 mg/kg, p.o.).
After administration, the animals were immediately placed in a locomotor activity box and recorded by Shanghai Jiliang animal video analysis system for 1 hour.
as §4

[3] = 5 mg/kg p.o. (low dose group; olanzapine positive control)
[4] = 10 mg/kg p.o. (medium dose group)
[5] = 20 mg/kg p.o. (high dose group)

| Structure (SMILES) | Effect on PCP-induced high locomotor activity compared with olanzapine (in words) [1] | Inhibition of PCP-induced high locomotor activity (in words) [1] | Distance resulting from the activity, First 30 min [1, 3] | Distance resulting from the activity, Last 30 min [1, 3] | Distance resulting from the activity, First 30 min [1, 4] | Distance resulting from the activity, Last 30 min [1, 4] | Distance resulting from the activity, First 30 min [1, 5] | Distance resulting from the activity, Last 30 min [1, 5] | Effect on Amphetamine-induced high locomotor activity compared with olanzapine (in words) [2] | Inhibition of Amphetamine-induced high locomotor activity (in words) [2] | Distance resulting from the activity, First 30 min [2, 3] | Distance resulting from the activity, Last 30 min [2, 3] | Distance resulting from the activity, First 30 min [2, 4] | Distance resulting from the activity, Last 30 min [2, 4] | Distance resulting from the activity, First 30 min [2, 5] | Distance resulting from the activity, Last 30 min [2, 5] |
| --- | --- | --- | --- | --- | --- | --- | --- | --- | --- | --- | --- | --- | --- | --- | --- | --- |
| Oc1cccc(C2CCN(Cc3c[nH]c4ccccc34)C2)c1 (racemic) [MDC-161502-002, 1-(indole-3-methyl)-3-(3-hydroxyphenyl)pyrrolidine] | equivalent to the effect of the positive drug olanzapine; also recorded: significant advantages over olanzapine | inhibited PCP-induced high locomotor activity in mice | 241185 | 265712 | 211543 | 206789 | 158231 | 110918 | equivalent to olanzapine; also recorded: better than olanzapine | significantly inhibited | 284824 | 257329 | 250678 | 231296 | 180127 | 148036 |
| O=S(=O)(Nc1cccc(C2CCN(Cc3c[nH]c4ccccc34)C2)c1)c1cccs1 (stereo not shown) [MDC-161502-008, 1-(indole-3-methyl)-3-[3-(2-thiophenesulfonamido)phenyl]pyrrolidine] | equivalent to the effect of the positive drug olanzapine | inhibited PCP-induced high locomotor activity in mice | 299745 |  | 246900 | 230876 | 220968 | 189765 | equivalent to olanzapine | significantly inhibited | 287643 | 264309 | 253945 | 220678 | 209673 | 219876 |
| O=S(=O)(CC(F)(F)F)Nc1cccc(C2CCN(Cc3c[nH]c4ccccc34)C2)c1 (stereo not shown) [MDC-161502-006, 1-(indole-3-methyl)-3-(3-trifluoroethanesulfonamidophenyl)pyrrolidine] |  |  | 327586 | 302499 | 286745 | 267834 | 248576 | 230867 |  |  | 340368 | 318973 | 298763 | 257632 | 270378 | 231584 |
